From ChEMBL document CHEMBL5729683, “Diazaindole derivative and use thereof as CHK1 inhibitor” (2023) come the findings set out here.

The target in assay [1] is Serine/threonine-protein kinase Chk2 (Homo sapiens, UniProt O96017). In words: Activity Test of Compounds in the CHK1 Coupled Reaction System: The compounds of the present disclosure used in the experiments were self-prepared, and their chemical names and structural formulas were shown in the preparation embodiments of each compound. […] The test was carried out on the KinaseProfiler™ protein kinase activity detection platform of Eurofins, and the experimental results were provided by the company. […] A mixture solution of Mg2′ and ATP (adenosine triphosphate) was added to initiate the reaction and the reaction solution was incubated at room temperature for 40 min. 0.5% […] was added to terminate the reaction. […] The value was read with scintillation counting method after drying.
Serine/threonine-protein kinase Chk2, sequence (O96017 whole entry): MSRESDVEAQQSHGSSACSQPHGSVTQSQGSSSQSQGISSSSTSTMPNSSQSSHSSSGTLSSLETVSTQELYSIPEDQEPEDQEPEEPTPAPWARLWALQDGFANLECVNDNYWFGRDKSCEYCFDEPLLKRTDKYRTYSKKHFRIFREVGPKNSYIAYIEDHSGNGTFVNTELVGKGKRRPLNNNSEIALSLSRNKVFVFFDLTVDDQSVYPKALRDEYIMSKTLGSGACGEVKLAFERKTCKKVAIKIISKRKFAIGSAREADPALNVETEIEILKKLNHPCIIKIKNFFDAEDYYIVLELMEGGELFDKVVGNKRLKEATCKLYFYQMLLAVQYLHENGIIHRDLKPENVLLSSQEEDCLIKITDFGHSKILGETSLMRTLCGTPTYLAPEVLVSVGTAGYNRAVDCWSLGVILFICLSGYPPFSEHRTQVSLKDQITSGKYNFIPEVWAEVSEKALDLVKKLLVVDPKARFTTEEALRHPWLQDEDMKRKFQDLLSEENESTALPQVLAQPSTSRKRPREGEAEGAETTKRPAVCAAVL

The target of assay [2] is T1, Serine/threonine-protein kinase Chk1 (Homo sapiens, UniProt O14757).
T1 sequence (O14757 whole entry): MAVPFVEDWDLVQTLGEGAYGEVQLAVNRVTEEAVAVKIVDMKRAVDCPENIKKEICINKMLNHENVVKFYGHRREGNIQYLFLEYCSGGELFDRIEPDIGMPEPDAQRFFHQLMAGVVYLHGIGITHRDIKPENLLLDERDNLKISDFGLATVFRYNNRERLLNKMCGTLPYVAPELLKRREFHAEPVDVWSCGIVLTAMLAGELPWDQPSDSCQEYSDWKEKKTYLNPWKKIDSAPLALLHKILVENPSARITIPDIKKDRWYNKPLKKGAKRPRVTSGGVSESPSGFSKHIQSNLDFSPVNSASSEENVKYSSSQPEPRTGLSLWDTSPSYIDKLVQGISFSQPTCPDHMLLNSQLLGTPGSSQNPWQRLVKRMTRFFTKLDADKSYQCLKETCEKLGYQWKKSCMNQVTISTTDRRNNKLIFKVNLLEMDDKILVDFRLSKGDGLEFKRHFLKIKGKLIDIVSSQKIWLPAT
Nature of the assay: Activity Test of Compounds in the CHK1 Coupled Reaction System: The compounds of the present disclosure used in the experiments were self-prepared, and their chemical names and structural formulas were shown in the preparation embodiments of each compound. The determination mixture containing embodiment compounds of the present disclosure and Chk1 and Chk2 kinases were incubated in a microtiter plate, and CHK1 inhibitor activity of compounds were tested by monitoring the phosphorylation of Chk1 and Chk2 kinases on a synthetic peptide substrate with a specific amino acid sequence ([…], SEQ ID NO: 1). The test was carried out on the KinaseProfiler™ protein kinase activity detection platform of Eurofins, and the experimental results were provided by the company. The procedure was as follows: Chk1 and Chk2 kinases were diluted with 20 mM MOPS (morpholinpropane sulfonic acid), 1 mM EDTA (ethylenediaminetetraacetic acid), 0.04% Brij-35, 5% glycerol, 0.1% 2-mercaptoethanol, 1 mg/mL BSA (bovine serum albumin) and added to the reaction system, and the reaction system contained the embodiment compounds, 8 mM MOPS pH 7.0, 0.2 mM EDTA, 200 sM polypeptide substrate ([…], SEQ ID NO: 1), 10 mM magnesium acetate and a certain concentration of [γ-33P]-ATP (the strength was about 500 cpm/pmol). A mixture solution of Mg2′ and ATP (adenosine triphosphate) was added to initiate the reaction and the reaction solution was incubated at room temperature for 40 min. 0.5% Phosphate buffer was added to terminate the reaction. 10 μL of the reaction solution was filtered four times on a continuous filter P30, washed three times with 0.425 phosphate buffer, and once with methanol, each wash for 4 min. The value was read with scintillation counting method after drying.

What is called IC50 is the midpoint of a concentration-inhibition curve. As for `COc1nc(C)ccc1-c1cc(Nc2cnc3c(F)cn(C4CCNCC4)c3n2)n[nH]1`, the 50% inhibitory concentration (IC50) in assay [1] is 0.028 µM. In the case of `COc1nc(C)ccc1-c1cc(Nc2cnc3c(F)cn(C4CCN(C)CC4)c3n2)n[nH]1`, in assay [1], the IC50 is 0.166 µM. For `COc1cccc(F)c1-c1cc(Nc2cnc3c(F)cn(C4CCNCC4)c3n2)n[nH]1`, the values for the half-inhibitory concentration (IC50) in assay [2] and in assay [1] were under 0.001 µM and 0.002 µM, respectively. In the case of `COc1cccc(F)c1-c1cc(Nc2cnc3ccn(C4CCNCC4)c3n2)n[nH]1`, the IC50 result in assay [2] was “in the range around 0.001 µM”; in assay [1] it was 0.013 µM. On the same counts, the results for `COc1nc(C)ccc1-c1cc(Nc2cnc3ccn(CC4CCNCC4)c3n2)n[nH]1` are 0.005 µM and 1.97 µM. Take `COc1nc(C)ccc1-c1cc(Nc2cnc3ccn(C4CCN(C)CC4)c3n2)n[nH]1`: the 50% inhibitory concentration (IC50) in assay [1] came to 0.257 µM. Same read-out and setting: with `COc1nc(C)ccc1-c1cc(Nc2cnc3ccn(C4CCNCC4)c3n2)n[nH]1` the figure was 0.079 µM. For the molecule `COc1cccc(F)c1-c1[nH]nc(Nc2cnc3ccn(C4CCNCC4)c3n2)c1F`, the concentration for half-maximal inhibition (IC50) entry was “in the range around 0.002 µM” in assay [2] and 0.024 µM in assay [1].
